Reference: patent US20210139844A1, “REPROGRAMMING FIBROBLASTS TO RETINAL CELLS” (UNIVERSITY OF NORTH TEXAS HEALTH SCIENCE CENTER, priority 2017, published 2021)
Entries after “also recorded” stand apart in the source; their conditions may differ.

How the values were obtained:
[1] = test system: HepG2 cells; conditions: treated for several days; cited from earlier work
[2] = test system: Nrl-GFP MEFs; assay: Chemical reprogramming of Nrl-GFP MEFs to photoreceptor like cells (Nrl-GFP reporter); format: cell-based, mouse; conditions: for effect on reprogramming of removing the small molecule from the cocktail: small molecule subtracted from cocktail
Text: Identification of small molecules for derivation of photoreceptor-like cells (CiPPC). […] The inventors have exploited this phenomenon to find out additional small molecules those might be important for the determination of retinal neuron specific fate. An array of small molecule along with different medium compositions and time points has been tested as possible candidates. Mouse Embryonic Fibroblasts (MEFs) from a photoreceptor specific reporter mouse (Nrl-GFP) are used as starting cells for the reprogramming studies (Akimoto et al., PNAS 103:3890-95, 2006). If converted to photoreceptors, these MEFs would have GFP expression from the Nrl promoter. […] This conversion requires three additional factors Sonic Hedgehog (S), Taurine (T) and Retinoic acid (R) introduced on day 8 (d8) (FIG. 1A and FIG. 1B). […] The inventors have tested the importance of each small molecule in the reprogramming process by using Nrl-GFP MEFs as starting cells.
All small molecules diluted in DMSO according to manufacturer's instruction. On day 0 about 35000 MEFs were seeded in each well of a 24 well plate (0.1% gelatin coated for O/N). At day 1 change the medium with photoreceptor induction medium (PIM) with V (0.5 mM), C (4.8 μM), R (2 μM) F (10 βM). On day 3 change the medium (PIM) with V, C, R, F plus IWR1 (I, 10 βM). Change the medium (PIM) with VCRFI on d5 and d6. On day 8 add Sonichedgehog (S, 3 nM), taurine molecules and factors. Finally on day 11 cells with GFP expression were observed. For the differentiation replace the medium with photoreceptor differentiation medium (PDM) and keep them up to d15 to d16. […] Cells were fixed or analyzed on day 7.

[3] = test system: mitochondrial ROS; assay: Measurement of mitochondrial ROS (MitoSox staining, fluorometry); format: cell-based, mouse
Text: Mitochondrial ROS activates NF-kB which controls CiPPC reprogramming by retrograde signaling. Next the inventors investigated the reasons behind NFkβ activation. Known inducers of NF-kB are highly variable including TNFα, LPS, Ionizing radiation and mitochondrial ROS (Formentini et al., Mol Cell 45:731-42, 2012; Andreakos et al., Blood 103:2229-37, 2004). […] So the inventors contemplated that mitochondrial ROS generated by small molecule treatment may activate NF-kB. […] The inventors found increased accumulation of mitochondrial ROS indicator mitosox during reprogramming starting from d5 compared to control MEFs (FIG. 6A, FIG. 6B and FIG. 6C). To measure the importance of mROS during chemical reprogramming, conversion experiments were performed in the presence of mitochondrial ROS scavenger, mitotempo.
Measurement of mitochondrial ROS. Mitochondrial ROS was detected and quantified. […] Cells were then washed twice with PBS and fluorescence has been monitored with a microplate reader set to 510 nm excitation (Ex bandwidth: 10 nm) and 595 nm emission (Em bandwidth 35 nm) wavelengths. mROS generation was also micrographed by Leica fluorescence microscope an quantified in Leica Application Suite X Software. […] Average intensity within each ROI was measured and exported to Excel data sheet. Average change in fluorescence was calculated for each type of cells. […]

[4] = test system: HFL1-Nrl-DsRed cells; assay: Chemical reprogramming of human HFL1-Nrl-DsRed fibroblasts to photoreceptor like cells; format: cell-based; conditions: added during reprogramming
Text: Identification of small molecules for derivation of photoreceptor-like cells (CiPPC). To identify small molecules responsible for retinal neuron specific fate, the inventors followed previous studies describing a set of small molecules that can convert fibroblasts into neurons (Hu et al., Cell stem cell 17:204-12, 2015; Zhang et al., Cell stem cell 17:735-47, 2015; Fu et al., Cell research 25, 2015; Cheng et al., Cell research 25:1269-72, 2015). Four out of six small molecules described in these studies, Valproic acid (V), CHIR(C), Repsox (R) and Forskolin(F), are able to convert fibroblast cells into mixed progenitor stage (Fu et al., Cell research 25, 2015). The inventors have exploited this phenomenon to find out additional small molecules those might be important for the determination of retinal neuron specific fate. An array of small molecule along with different medium compositions and time points has been tested as possible candidates. Mouse Embryonic Fibroblasts (MEFs) from a photoreceptor specific reporter mouse (Nrl-GFP) are used as starting cells for the reprogramming studies (Akimoto et al., PNAS 103:3890-95, 2006). If converted to photoreceptors, these MEFs would have GFP expression from the Nrl promoter. […] This conversion requires three additional factors Sonic Hedgehog (S), Taurine (T) and Retinoic acid (R) introduced on day 8 (d8) (FIG. 1A and FIG. 1B). Human fibroblasts (HFL1, ATCC CCL153) can also be converted into photoreceptor like cells by these small molecules. The inventors first generated a HFL-1 cell line having a lentivirally transduced DsRed reporter downstream of Nrl promoter. Drug selected HFL1-Nrl-DsRed cells were used for the reprogramming by the previously described mouse specific protocol with some modifications (FIG. 1C). Round shaped and neuron like Nrl promoter driven DsRed positive cells were evident starting from d6 to d8 (FIG. 1D). […]
All small molecules diluted in DMSO according to manufacturer's instruction. […] Cells were fixed or analyzed on day 7.

Molecule | effect on reprogramming of removing the small molecule from the cocktail [2] | morphology of converted human photoreceptor like cells [4] | other results
Oc1nc(-c2ccc(C(F)(F)F)cc2)nc2c1CSCC2 [XAV939] | – | – | axin stabilization [1]: can also stabilize the axin at cytosol
Cc1cccc(-c2n[nH]cc2-c2ccc3ncccc3n2)n1 [Repsox, 2-(3-(6-Methylpyridin-2-yl)-1H-pyrazol-4-yl)-1,5-naphthyridine] | worst effect on reprogramming process | – | –
Cc1cnc(-c2cnc(NCCNc3ccc(C#N)cn3)nc2-c2ccc(Cl)cc2Cl)[nH]1 [CHIR, 6-[2-[[4-(2,4-dichlorophenyl)-5-(5-methyl-1H-imidazol-2-yl)pyrimidin-2-yl]amino]ethylamino]-pyridine-3-carbonitrile] | worst effect on reprogramming process | – | –
O=C(Nc1cccc2cccnc12)c1ccc(N2C(=O)[C@@H]3[C@H](C2=O)[C@@H]2C=C[C@H]3C2)cc1 [IWR1, N-(Quinolin-8-yl)-4-(exo-4-aza-3,5-dioxotricyclo[5.2.1.02,6]oct-8-en-4-yl)benzamide] | worst effect on reprogramming process; also recorded: reduced the reprogramming efficiency | – | conversion of GFP negative MEFs into GFP+ photoreceptor like cells ([2]; in presence of VCRF, d10 to d11, S, T, R introduced on d8): can covert GFP negative MEFs into GFP^+ positive round shaped photoreceptor like cells; mROS generation in reprogramming without the small molecule ([3]; d8): did not show increase in mROS generation
CC1(C)CC(NC(=O)C[P+](c2ccccc2)(c2ccccc2)c2ccccc2)CC(C)(C)N1[O] [mitotempo] | – | – | yield of reprogrammed cells ([2]; conversion in presence of mROS scavenger, printed as 'significantly decreased yield ... (20%)'): 20%; number of Nrl-GFP+ reprogrammed cells at different concentrations ([2]; data not shown): dose dependent relationship; mROS generation upon scavenger treatment ([3]; mitoSox staining, fluorometric analysis): decrease of mROS generation
BDNF: factor added during human cell reprogramming (protein, UniProt P23560 129-247, looked up, Neurotrophic factor BDNF, factor added during human cell reprogramming) Neurotrophic factor BDNF: HSDPARRGELSVCDSISEWVTAADKKTAVDMSGGTVTVLEKVPVSKGQLKQYFYETKCNPMGYTKEGCRGIDKRHWNSQCRTTQSYVRALTMDSKKRIGWRFIRIDTSCVCTLTIKRGR | – | helped these converted human photoreceptor like cells to have a healthy morphology | –
GDNF: factor added during human cell reprogramming (protein, UniProt P39905 78-211, looked up) Glial cell line-derived …: SPDKQMAVLPRRERNRQAAAANPENSRGKGRRGQRGKNRGCVLTAIHLNVTDLGLGYETKEELIFRYCSGSCDAAETTYDKILKNLSRNRRLVSDKVGQACCRPIAFDDDLSFLDDNLVYHILRKHSAKRCGCI | – | helped these converted human photoreceptor like cells to have a healthy morphology | –
NT3: factor added during human cell reprogramming (protein, UniProt P20783 139-257, looked up, Neurotrophin-3, factor added during human cell reprogramming) Neurotrophin-3: YAEHKSHRGEYSVCDSESLWVTDKSSAIDIRGHQVTVLGEIKTGNSPVKQYFYETRCKEARPVKNGCRGIDDKHWNSQCKTSQTYVRALTSENNKLVGWRWIRIDTSCVCALSRKIGRT | – | helped these converted human photoreceptor like cells to have a healthy morphology | –
